“And” between values parts separate entries of the source, which are not always exact repeats. Equal values may be shown once. Inconclusive results and toxic doses are left out. Cut-off read from the data, not from the text of the source: active = T/C of 150% or more; inactive = T/C below 125%.
Test system: L1210 leukemia ip in BDF1 mice, survival T/C
Assay: NCI In Vivo Anticancer Drug Screen. Data for tumor model L1210 Leukemia (intraperitoneal) in B6D2F1 (BDF1) mice
Settings: endpoint: mean survival time, higher = longer survival
Outline: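 Survival endpoint. Drug-treated group vs vehicle group, expressed as T divided by C. Tumor passaged by transplantation.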

[1] = dose: 100.0 mg/kg/injection, schedule: Q04DX003 (ip), vehicle: saline
[2] = dose: 200.0 mg/kg/injection, schedule: Q04DX003 (ip), vehicle: saline
[3] = dose: 400.0 mg/kg/injection, schedule: Q04DX003 (ip), vehicle: saline
[4] = dose: 200.0 mg/kg/injection, schedule: Q04DX002 (ip), vehicle: Klucel (hydroxypropylcellulose) (HPC)
[5] = dose: 400.0 mg/kg/injection, schedule: Q04DX002 (ip), vehicle: Klucel (hydroxypropylcellulose) (HPC)
[6] = dose: 5.0 mg/kg/injection, schedule: Q04DX003 (ip), vehicle: Klucel (hydroxypropylcellulose) (HPC)
[7] = dose: 10.0 mg/kg/injection, schedule: Q04DX003 (ip), vehicle: Klucel (hydroxypropylcellulose) (HPC)
[8] = dose: 100.0 mg/kg/injection, schedule: Q01DX009 (ip), vehicle: Klucel (hydroxypropylcellulose) (HPC)
[9] = dose: 200.0 mg/kg/injection, schedule: Q01DX009 (ip), vehicle: Klucel (hydroxypropylcellulose) (HPC)
[10] = dose: 400.0 mg/kg/injection, schedule: Q01DX009 (ip), vehicle: Klucel (hydroxypropylcellulose) (HPC)
[11] = dose: 100.0 mg/kg/injection, schedule: Q04DX003 (ip), vehicle: Klucel (hydroxypropylcellulose) (HPC)
[12] = dose: 200.0 mg/kg/injection, schedule: Q04DX003 (ip), vehicle: Klucel (hydroxypropylcellulose) (HPC)
[13] = dose: 400.0 mg/kg/injection, schedule: Q04DX003 (ip), vehicle: Klucel (hydroxypropylcellulose) (HPC)
[14] = dose: 100.0 mg/kg/injection, schedule: Q04DX003 (ip), vehicle: saline with Tween-80

Measured: T/C

CCCCNc1cc2c3c(c1)CCCN3CCC2
inactive: dose: 12.5 mg/kg/injection, schedule: Q01DX009 (ip), vehicle: saline 107 % of control | dose: 12.5 mg/kg/injection, schedule: Q04DX003 (ip), vehicle: saline 95 % of control | dose: 25.0 mg/kg/injection, schedule: Q01DX009 (ip), vehicle: saline 103 % of control | dose: 25.0 mg/kg/injection, schedule: Q04DX003 (ip), vehicle: saline 98 % of control | dose: 50.0 mg/kg/injection, schedule: Q04DX003 (ip), vehicle: saline 95 % of control

ClCCCCC(Cl)(Cl)Cl
inactive: dose: 75.0 mg/kg/injection, schedule: Q01DX009 (ip), vehicle: saline 93 % of control | [1] 102 % of control | dose: 150.0 mg/kg/injection, schedule: Q01DX009 (ip), vehicle: saline 91 % of control | [2] 98 % of control | dose: 300.0 mg/kg/injection, schedule: Q01DX009 (ip), vehicle: saline 90 % of control | [3] 108 % of control

CSc1ccccc1C1CCCCCC1OS(=O)(=O)c1ccc(C)cc1 (configuration not stated)
inactive: dose: 15.0 mg/kg/injection, schedule: Q01DX001 (ip), vehicle: carboxymethylcellulose (CMC) 96 % of control | dose: 30.0 mg/kg/injection, schedule: Q01DX001 (ip), vehicle: carboxymethylcellulose (CMC) 102 % of control

CC(C)CCCC(C)C1CCC2C3CC(O)C45CC4CCC5(C)C3CCC12C (configuration not stated)
inactive: [4] 89 % of control | [5] 92 % of control

CC(COc1cc(Cl)c(Cl)cc1Cl)OC(=O)COc1ccc(Cl)cc1Cl (configuration not stated)
inactive: dose: 100.0 mg/kg/injection, schedule: Q01DX001 (ip), vehicle: saline 88 % of control | dose: 200.0 mg/kg/injection, schedule: Q01DX001 (ip), vehicle: saline 95 % of control | dose: 400.0 mg/kg/injection, schedule: Q01DX001 (ip), vehicle: saline 95 % of control

CCC(C)(CC(=O)O)CC(=O)O
inactive: dose: 100.0 mg/kg/injection, schedule: Q01DX009 (ip), vehicle: saline 107 % of control | [1] 93 % of control | dose: 200.0 mg/kg/injection, schedule: Q01DX009 (ip), vehicle: saline 93 % of control | [2] 90 % of control | dose: 400.0 mg/kg/injection, schedule: Q01DX009 (ip), vehicle: saline 96 % of control | [3] 92 % of control

[Cl][Sn]([c]1ccccc1)([c]1ccccc1)[c]1ccccc1
inactive: dose: 2.5 mg/kg/injection, schedule: Q01DX009 (ip), vehicle: Klucel (hydroxypropylcellulose) (HPC) 89 % of control | dose: 5.0 mg/kg/injection, schedule: Q01DX001 (ip), vehicle: saline 95 % of control | dose: 5.0 mg/kg/injection, schedule: Q01DX009 (ip), vehicle: Klucel (hydroxypropylcellulose) (HPC) 97 % of control and 106 % of control | [6] 95 % of control | dose: 10.0 mg/kg/injection, schedule: Q01DX001 (ip), vehicle: saline 101 % of control | [7] 90 % of control | dose: 20.0 mg/kg/injection, schedule: Q01DX001 (ip), vehicle: saline 95 % of control | dose: 40.0 mg/kg/injection, schedule: Q01DX001 (ip), vehicle: saline 91 % of control

CSc1ccc(NC(=O)Oc2ccc(NC(C)=O)cc2)cc1
inactive: [8] 98 % of control | [9] 106 % of control | [10] 98 % of control

O=C(NNc1ccccc1)C1C2CC3OC(=O)C1C3C2 (configuration not stated)
inactive: [1] 93 % of control | [2] 98 % of control | [3] 96 % of control

O=C(NCCCCCCCCCCNC(=O)Nc1ccc(C2=NCCN2)cc1)Nc1ccc(C2=NCCN2)cc1
inactive: dose: 62.5 mg/kg/injection, schedule: Q01DX Z (ip), vehicle: carboxymethylcellulose (CMC) 98 % of control | dose: 125.0 mg/kg/injection, schedule: Q01DX Z (ip), vehicle: carboxymethylcellulose (CMC) 98 % of control | dose: 250.0 mg/kg/injection, schedule: Q01DX Z (ip), vehicle: carboxymethylcellulose (CMC) 106 % of control | dose: 500.0 mg/kg/injection, schedule: Q01DX Z (ip), vehicle: carboxymethylcellulose (CMC) 114 % of control

[CH3][Sb]1([CH3])([I])[CH2]CCC[CH2]1
inactive: [1] 97 % of control | [2] 97 % of control

CC1(C)CC2(CC(C)(C)c3cc(O)c(O)cc32)c2cc(O)c(O)cc21
inactive: [8] 95 % of control | [11] 100 % of control | [9] 100 % of control | [12] 105 % of control | [10] 104 % of control | [13] 102 % of control

O=Cc1cc([N+](=O)[O-])cc(CCl)c1O
inactive: [8] 90 % of control

O=C1C=CC(=O)C2=C1C1c3ccccc3C2c2ccccc21
inactive: dose: 50.0 mg/kg/injection, schedule: Q04DX002 (ip), vehicle: saline with Tween-80 95 % of control | dose: 100.0 mg/kg/injection, schedule: Q04DX002 (ip), vehicle: saline with Tween-80 95 % of control and 98 % of control | dose: 200.0 mg/kg/injection, schedule: Q04DX002 (ip), vehicle: saline with Tween-80 92 % of control | dose: 400.0 mg/kg/injection, schedule: Q04DX002 (ip), vehicle: saline with Tween-80 114 % of control

Nc1ccc(S(=O)(=O)Nc2ccc([N+](=O)[O-])cc2)cc1
inactive: dose: 25.0 mg/kg/injection, schedule: Q01DX009 (ip), vehicle: saline with Tween-80 98 % of control | dose: 50.0 mg/kg/injection, schedule: Q01DX009 (ip), vehicle: saline with Tween-80 93 % of control | dose: 100.0 mg/kg/injection, schedule: Q01DX009 (ip), vehicle: saline with Tween-80 98 % of control | dose: 200.0 mg/kg/injection, schedule: Q01DX009 (ip), vehicle: saline with Tween-80 110 % of control | dose: 400.0 mg/kg/injection, schedule: Q01DX009 (ip), vehicle: saline with Tween-80 100 % of control

Cc1ccc(O)cn1
inactive: [14] 100 % of control | dose: 200.0 mg/kg/injection, schedule: Q04DX003 (ip), vehicle: saline with Tween-80 96 % of control | dose: 400.0 mg/kg/injection, schedule: Q04DX003 (ip), vehicle: saline with Tween-80 103 % of control

CCCC(=O)Nc1ccc(N)cc1OC
inactive: dose: 5.0 mg/kg/injection, schedule: Q01DX009 (ip), vehicle: saline 100 % of control | [6] 96 % of control | dose: 10.0 mg/kg/injection, schedule: Q01DX009 (ip), vehicle: saline 100 % of control | [7] 102 % of control | dose: 20.0 mg/kg/injection, schedule: Q01DX009 (ip), vehicle: saline 100 % of control | dose: 20.0 mg/kg/injection, schedule: Q04DX003 (ip), vehicle: Klucel (hydroxypropylcellulose) (HPC) 96 % of control

C=CCP(C)(=O)CC=C
inactive: dose: 100.0 mg/kg/injection, schedule: Q04DX002 (ip), vehicle: saline 102 % of control | dose: 200.0 mg/kg/injection, schedule: Q04DX002 (ip), vehicle: saline 108 % of control | dose: 400.0 mg/kg/injection, schedule: Q04DX002 (ip), vehicle: saline 94 % of control

CCN=C(NCC)Nc1ccc(NC(=O)Nc2ccc(NC(=O)Nc3ccc(NC(=NCC)NCC)cc3)cc2)cc1
inactive: dose: 1.0 mg/kg/injection, schedule: Q01DX Z (ip), vehicle: carboxymethylcellulose (CMC) 97 % of control | dose: 2.0 mg/kg/injection, schedule: Q01DX Z (ip), vehicle: carboxymethylcellulose (CMC) 96 % of control | dose: 4.1 mg/kg/injection, schedule: Q01DX Z (ip), vehicle: carboxymethylcellulose (CMC) 102 % of control | dose: 8.3 mg/kg/injection, schedule: Q01DX Z (ip), vehicle: carboxymethylcellulose (CMC) 111 % of control

O=C(OC1COC(OCc2ccccc2)C(OC(=O)c2ccccc2)C1OC(=O)c1ccccc1)c1ccccc1 (configuration not stated)
inactive: dose: 25.0 mg/kg/injection, schedule: Q04DX003 (ip), vehicle: saline with Tween-80 94 % of control | [14] 93 % of control and 87 % of control

CC(C)C1=CC(=O)OC1C(O)C(C)C1CCC2C3CC=C4CC(O)CCC4(C)C3CCC12C (configuration not stated)
inactive: [11] 102 % of control | [12] 96 % of control | [13] 94 % of control

CCSC1C(O)C(C(O)CO)OC1n1cnc2c(N)ncnc21 (configuration not stated)
inactive: dose: 100.0 mg/kg/injection, schedule: Q01DX005 (ip), vehicle: saline 98 % of control and 105 % of control and 102 % of control | dose: 200.0 mg/kg/injection, schedule: Q01DX005 (ip), vehicle: saline 98 % of control and 100 % of control and 96 % of control | dose: 400.0 mg/kg/injection, schedule: Q01DX005 (ip), vehicle: saline 104 % of control

CCCCn1c(=S)sc2ccccc21
inactive: dose: 100.0 mg/kg/injection, schedule: Q04DX002 (ip), vehicle: Klucel (hydroxypropylcellulose) (HPC) 94 % of control | [4] 109 % of control | [5] 88 % of control

Source: PubChem BioAssay AID248 (DTP/NCI, 2004)
